These results are taken from patent US11331369B2, “Endoparasitic depsipeptides” (Zoetis Services LLC, priority 2017, dated 2022).

For this assay, the system named is third stage larvae of Haemonchus contortus. The assay is described as follows: Haemonchus contortus L3 (HcL3) Assay. Type of assay: cell-based. The following applies: 96 h, read-out: HcL3 Minimum Effective Dose (MED).

`CC(C)C[C@H]1C(=O)O[C@H](Cc2ccc(Cn3cc(O)cn3)cc2)C(=O)N(C)[C@@H](CC(C)C)C(=O)O[C@H](C)C(=O)N(C)[C@@H](CC(C)C)C(=O)O[C@H](Cc2ccccc2)C(=O)N(C)[C@@H](CC(C)C)C(=O)O[C@H](C)C(=O)N1C` [Example 2-30, (3S,6R,9S,12R,15S,18R,21S,24R)-6-benzyl-18-(4-((4-hydroxy-1H-pyrazol-1-yl)methyl)benzyl)-3,9,15,21-tetraisobutyl-4,10,12,16,22,24-hexamethyl-1,7,13,19-tetraoxa-4,10,16,22-tetraazacyclotetracosan-2,5,8,11,14,17,20,23-octaone]: the minimal effective concentration was 1 to 10 µM.

With `CC(C)C[C@H]1C(=O)O[C@H](Cc2ccc(Cn3cc(C(N)=O)cn3)cc2)C(=O)N(C)[C@@H](CC(C)C)C(=O)O[C@H](C)C(=O)N(C)[C@@H](CC(C)C)C(=O)O[C@H](Cc2ccccc2)C(=O)N(C)[C@@H](CC(C)C)C(=O)O[C@H](C)C(=O)N1C` [Example 2-53, 1-(4-(((2R,5S,8R,11S,14R,17S,20R,23S)-14-benzyl-5,11,17,23-tetraisobutyl-4,8,10,16,20,22-hexamethyl-3,6,9,12,15,18,21,24-octaoxo-1,7,13,19-tetraoxa-4,10,16,22-tetraazacyclotetracosan-2-yl)methyl)benzyl)-1H-pyrazole-4-carboxamide], the minimal effective concentration was 1 to 10 µM.

For the compound `CC(C)C[C@H]1C(=O)O[C@H](Cc2cccc(Cn3cccn3)c2)C(=O)N(C)[C@@H](CC(C)C)C(=O)O[C@H](C)C(=O)N(C)[C@@H](CC(C)C)C(=O)O[C@H](Cc2ccc(Cn3cccn3)cc2)C(=O)N(C)[C@@H](CC(C)C)C(=O)O[C@H](C)C(=O)N1C` [Example 3-1, (3S,6R,9S,12R,15S,18R,21S,24R)-3,9,15,21-tetraisobutyl-4,6,10,16,18,22-hexamethyl-12-[[3-(pyrazol-1-ylmethyl)phenyl]methyl]-24-[[4-(pyrazol-1-ylmethyl)phenyl]methyl]-1,7,13,19-tetraoxa-4,10,16, 22-tetrazacyclotetracosane-2,5,8,11,14,17,20,23-octaone], the minimal effective concentration is 1 to 10 µM.

Take `Cc1cnn(Cc2ccc(C[C@H]3OC(=O)[C@H](CC(C)C)N(C)C(=O)[C@@H](C)OC(=O)[C@H](CC(C)C)N(C)C(=O)[C@@H](Cc4cccc(Cn5cc(C)cn5)c4)OC(=O)[C@H](CC(C)C)N(C)C(=O)[C@@H](C)OC(=O)[C@H](CC(C)C)N(C)C3=O)cc2)c1` [Example 3-2, (3S,6R,9S,12R,15S,18R,21S,24R)-3,9,15,21-tetraisobutyl-4,6,10,16,18,22-hexamethyl-12-[[3-[(4-methylpyrazol-1-yl)methyl]phenyl]methyl]-24-[[4-[(4-methylpyrazol-1-yl)methyl]phenyl]methyl]-1,7,13,19-tetraoxa-4,10,16,22-tetrazacyclotetracosane-2,5,8,11,14,17,20,23-octaone]: the minimal effective concentration fell in the range of 1 to 10 µM.

`CC(C)C[C@H]1C(=O)O[C@H](Cc2cccc(Cn3cc(Br)cn3)c2)C(=O)N(C)[C@@H](CC(C)C)C(=O)O[C@H](C)C(=O)N(C)[C@@H](CC(C)C)C(=O)O[C@H](Cc2ccc(Cn3cc(Br)cn3)cc2)C(=O)N(C)[C@@H](CC(C)C)C(=O)O[C@H](C)C(=O)N1C` [Example 3-3, (3S,6R,9S,12R,15S,18R,21S,24R)-6-[[3-[(4-bromopyrazol-1-yl)methyl]phenyl]methyl]-18-[[4-[(4-bromopyrazol-1-yl)methyl]phenyl]methyl]-3,9,15,21-tetraisobutyl-4,10,12,16,22,24-hexamethyl-1,7,13,19-tetraoxa-4,10,16,22-tetrazacyclotetracosane-2,5,8,11,14,17,20,23-octaone]: the minimal effective concentration lay within 1 to 10 µM.
